Experimental data from ChEMBL document CHEMBL5113517, “Structure-Based Design, Optimization, and Evaluation of Potent Stabilized Peptide Inhibitors Disrupting MTDH and SND1 Interaction” (J Med Chem, 2022).
Each block holds one compound with its values, some of them ahead of it. Numbered stars: 1 amine (or outer) side, 2 acyl side, 3 side chain; on linkers, the order of the positions; unused ones are H or OH. Bridge positions count the residues as written; N and C are the ends. Square brackets hold non-standard residues; d marks the D form. Peptide text beside a SMILES is read from it. I, II: the chains in the order shown. ξ: configuration not given here. X1 = N[C@@H](CC(=O)[*:1])C(=O)[*:2]; Dap = NC[C@H](N)C(=O)O; ξD = NC(CC(=O)O)C(=O)O

Experiments:
[1] = Binding affinity to MTDH /His-SND1 (unknown origin) expressed in Escherichia coli BL21(DE3) assessed as dissociation constant by fluorescence polarization assay; set-up: species or system Homo sapiens
[2] = Drug uptake in human MDA-MB-231 cells assessed as increase in cell penetration at 10 uM incubated for 12 hrs by flow cytometry method; type: ADME, cell-based; conditions: mda-mb-231, 12 h

Drug uptake [2]: Active
SMILES: CC(C)[C@H](NC(=O)[C@H](Cc1c[nH]c2ccccc12)NC(=O)[C@H](CC(N)=O)NC(=O)CNC(=O)[C@H](Cc1c[nH]c2ccccc12)NC(=O)[C@H](CCC(=O)O)NC(=O)[C@H](CCC(=O)O)NC(=O)[C@H](C)NC(=O)[C@@H]1CCCN1C(=O)[C@@H]1CNC(=O)[C@@H](NC(=O)[C@@H](N)CC(=O)O)CC(=O)N[C@@H](Cc2c[nH]c3ccccc23)C(=O)N[C@@H](CC(N)=O)C(=O)N1)C(=O)N[C@@H](CC(=O)O)C(=O)N[C@@H](CCC(=O)O)C(N)=O
Kd [1]: 0.121 µM

SMILES: C[C@@H]1NC(=O)C[C@H](N)C(=O)NC[C@@H](C(=O)N[C@@H](CC(=O)O)C(=O)N[C@@H](Cc2c[nH]c3ccccc23)C(=O)N[C@@H](CC(N)=O)C(=O)N[C@@H](C)C(=O)N2CCC[C@H]2C(=O)N[C@@H](C)C(=O)N[C@@H](CCC(=O)O)C(=O)N[C@@H](CCC(=O)O)C(=O)N[C@@H](Cc2c[nH]c3ccccc23)C(=O)NCC(=O)N[C@@H](CC(N)=O)C(N)=O)NC(=O)[C@H](C)NC1=O (AA[Dap]DWNAPAEEWGN-NH2; linker N-3 via X1)
Kd [1]: 0.231 µM

SMILES: CC[C@H](C)[C@H](NC(=O)[C@H](CC(N)=O)NC(=O)[C@H](Cc1c[nH]c2ccccc12)NC(=O)[C@H](CC(=O)O)NC(=O)[C@@H]1CNC(=O)[C@@H](N)CC(=O)N[C@@H](C)C(=O)N[C@@H](C)C(=O)N1)C(=O)N[C@@H](Cc1ccc(O)cc1)C(=O)N[C@@H](C)C(=O)N[C@@H](Cc1ccc(O)cc1)C(=O)N[C@@H](CCC(=O)O)C(=O)N[C@@H](Cc1c[nH]c2ccccc12)C(=O)NCC(=O)N[C@@H](CC(N)=O)C(=O)N[C@@H](CC(=O)O)C(N)=O (AA[Dap]DWNIYAYEWGND-NH2; linker N-3 via X1)
Kd [1]: 0.443 µM

SMILES: CC[C@H](C)[C@H](NC(=O)[C@H](CC(N)=O)NC(=O)[C@H](Cc1c[nH]c2ccccc12)NC(=O)[C@H](CC(=O)O)NC(=O)[C@@H]1CNC(=O)[C@@H](N)CC(=O)N[C@@H](C)C(=O)N[C@@H](C)C(=O)N1)C(=O)N[C@@H](Cc1ccc(O)cc1)C(=O)N[C@@H](C)C(=O)N[C@@H](Cc1ccc(O)cc1)C(=O)N[C@@H](CCC(=O)O)C(=O)N[C@@H](Cc1c[nH]c2ccccc12)C(=O)NCC(=O)N[C@@H](CC(N)=O)C(=O)N[C@@H](CCC(=O)O)C(N)=O (AA[Dap]DWNIYAYEWGNE-NH2; linker N-3 via X1)
Kd [1]: 0.451 µM

SMILES: CC[C@H](C)[C@H](NC(=O)[C@H](CC(N)=O)NC(=O)[C@H](Cc1c[nH]c2ccccc12)NC(=O)[C@H](CC(=O)O)NC(=O)[C@@H]1CNC(=O)[C@@H](N)CC(=O)N[C@@H](C)C(=O)N[C@@H](C)C(=O)N1)C(=O)N[C@@H](Cc1ccc(O)cc1)C(=O)N[C@@H](C)C(=O)N[C@@H](Cc1ccc(O)cc1)C(=O)N[C@@H](CCC(=O)O)C(=O)N[C@@H](Cc1c[nH]c2ccccc12)C(=O)NCC(=O)N[C@@H](CC(N)=O)C(=O)N[C@@H](Cc1c[nH]cn1)C(N)=O (AA[Dap]DWNIYAYEWGNH-NH2; linker N-3 via X1)
Kd [1]: 0.671 µM

SMILES: C[C@H](NC(=O)[C@@H]1CCCN1C(=O)[C@H](C)NC(=O)[C@H](CC(N)=O)NC(=O)[C@H](Cc1c[nH]c2ccccc12)NC(=O)[C@@H](N)CC(=O)O)C(=O)N[C@@H](CCC(=O)O)C(=O)N[C@@H](CCC(=O)O)C(=O)N[C@@H](Cc1c[nH]c2ccccc12)C(=O)NCC(=O)N[C@@H](CC(N)=O)C(=O)O (H-DWNAPAEEWGN-OH)
Kd [1]: 0.211 µM

Drug uptake [2]: Active
SMILES: CC(C)[C@H](NC(=O)[C@H](Cc1c[nH]c2ccccc12)NC(=O)[C@H](CC(N)=O)NC(=O)CNC(=O)[C@H](Cc1c[nH]c2ccccc12)NC(=O)[C@H](CCC(=O)O)NC(=O)[C@@H]1CNC(=O)CC(NC(=O)[C@H](CC(N)=O)NC(=O)[C@H](Cc2c[nH]c3ccccc23)NC(=O)[C@@H](N)CC(=O)O)C(=O)N2CCC[C@H]2C(=O)N[C@@H](C)C(=O)N1)C(=O)N[C@@H](CC(=O)O)C(=O)N[C@@H](CCC(=O)O)C(N)=O (stereo partly specified) (H-DWN[ξD]PA[Dap]EWGNWVDE-NH2; lactam 4-7)
Kd [1]: 0.171 µM

SMILES: CC(C)[C@H](NC(=O)[C@H](Cc1c[nH]c2ccccc12)NC(=O)[C@H](CC(N)=O)NC(=O)CNC(=O)[C@H](Cc1c[nH]c2ccccc12)NC(=O)[C@H](CCC(=O)O)NC(=O)[C@H](CCC(=O)O)NC(=O)[C@H](C)NC(=O)[C@@H]1CCCN1C(=O)[C@H](C)NC(=O)[C@H](CC(N)=O)NC(=O)[C@H](Cc1c[nH]c2ccccc12)NC(=O)[C@H](CC(=O)O)NC(=O)[C@H](CO)NC(=O)[C@@H](N)CC(N)=O)C(=O)O (H-NSDWNAPAEEWGNWV-OH)
Kd [1]: 0.152 µM

SMILES: C[C@H](NC(=O)[C@H](CO)NC(=O)[C@@H](N)CO)C(=O)N[C@@H](CC(=O)O)C(=O)N1CCC[C@H]1C(=O)N[C@@H](CC(N)=O)C(=O)N[C@@H](CO)C(=O)N[C@@H](CC(=O)O)C(=O)N[C@@H](Cc1c[nH]c2ccccc12)C(=O)N[C@@H](CC(N)=O)C(=O)N[C@@H](C)C(=O)N1CCC[C@H]1C(=O)N[C@@H](C)C(=O)N[C@@H](CCC(=O)O)C(=O)N[C@@H](CCC(=O)O)C(=O)N[C@@H](Cc1c[nH]c2ccccc12)C(=O)NCC(=O)N[C@@H](CC(N)=O)C(=O)O (H-SSADPNSDWNAPAEEWGN-OH)
Kd [1]: 0.118 µM

SMILES: CC(C)[C@H](NC(=O)[C@H](Cc1c[nH]c2ccccc12)NC(=O)[C@H](CC(N)=O)NC(=O)CNC(=O)[C@H](Cc1c[nH]c2ccccc12)NC(=O)[C@H](CCC(=O)O)NC(=O)[C@H](CCC(=O)O)NC(=O)[C@H](C)NC(=O)[C@@H]1CCCN1C(=O)[C@H](C)NC(=O)[C@H](CC(N)=O)NC(=O)[C@H](Cc1c[nH]c2ccccc12)NC(=O)[C@H](CC(=O)O)NC(=O)[C@H](CO)NC(=O)[C@H](CC(N)=O)NC(=O)[C@@H]1CCCN1C(=O)[C@H](CC(=O)O)NC(=O)[C@H](C)NC(=O)[C@H](CO)NC(=O)[C@@H](N)CO)C(=O)N[C@@H](CC(=O)O)C(=O)N[C@@H](CCC(=O)O)C(=O)O (H-SSADPNSDWNAPAEEWGNWVDE-OH)
Kd [1]: 0.0624 µM

Drug uptake [2]: Active
SMILES: CC(C)[C@H](NC(=O)[C@H](Cc1c[nH]c2ccccc12)NC(=O)[C@H](CC(N)=O)NC(=O)CNC(=O)[C@H](Cc1c[nH]c2ccccc12)NC(=O)[C@@H]1CNC(=O)[C@@H](NC(=O)[C@H](C)NC(=O)[C@H](CC(N)=O)NC(=O)[C@H](Cc2c[nH]c3ccccc23)NC(=O)[C@@H](N)CC(=O)O)CC(=O)N[C@@H](C)C(=O)N[C@@H](CCC(=O)O)C(=O)N1)C(=O)N[C@@H](CC(=O)O)C(=O)N[C@@H](CCC(=O)O)C(N)=O (I: AE[Dap]WGNWVDE-NH2 / II: H-DWNAD; amide I:3-II:C, I:N-II:5)
Kd [1]: 0.171 µM

SMILES: C[C@H](NC(=O)[C@H](CC(N)=O)NC(=O)[C@@H]1CNC(=O)[C@@H](N)CC(=O)N[C@@H](Cc2c[nH]c3ccccc23)C(=O)N[C@@H](CC(N)=O)C(=O)N1)C(=O)N[C@@H](CCC(=O)O)C(=O)N[C@@H](CCC(=O)O)C(=O)N[C@@H](Cc1c[nH]c2ccccc12)C(=O)NCC(=O)N[C@@H](CC(N)=O)C(N)=O (WN[Dap]NAEEWGN-NH2; linker N-3 via X1)
Kd [1]: 0.697 µM

SMILES: C[C@H](NC(=O)[C@H](CC(N)=O)NC(=O)[C@@H]1CNC(=O)[C@@H](N)CC(=O)N[C@@H](Cc2c[nH]c3ccccc23)C(=O)N[C@@H](CC(N)=O)C(=O)N1)C(=O)N[C@@H](Cc1ccccc1)C(=O)N[C@@H](CCC(=O)O)C(=O)N[C@@H](Cc1c[nH]c2ccccc12)C(=O)NCC(=O)N[C@@H](CC(N)=O)C(N)=O (WN[Dap]NAFEWGN-NH2; linker N-3 via X1)
Kd [1]: 1.73 µM

SMILES: C[C@H](NC(=O)[C@H](CC(N)=O)NC(=O)[C@@H]1CNC(=O)[C@@H](N)CC(=O)N[C@@H](Cc2c[nH]c3ccccc23)C(=O)N[C@@H](CC(N)=O)C(=O)N1)C(=O)N[C@@H](Cc1ccc(O)cc1)C(=O)N[C@@H](CCC(=O)O)C(=O)N[C@@H](Cc1c[nH]c2ccccc12)C(=O)NCC(=O)N[C@@H](CC(N)=O)C(N)=O (WN[Dap]NAYEWGN-NH2; linker N-3 via X1)
Kd [1]: 0.932 µM

SMILES: C[C@H](NC(=O)[C@@H]1CCCN1C(=O)[C@@H]1CNC(=O)[C@@H](N)CC(=O)N[C@@H](Cc2c[nH]c3ccccc23)C(=O)N[C@@H](CC(N)=O)C(=O)N1)C(=O)N[C@@H](CCC(=O)O)C(=O)N[C@@H](CCC(=O)O)C(=O)N[C@@H](Cc1c[nH]c2ccccc12)C(=O)NCC(=O)N[C@@H](CC(N)=O)C(N)=O (WN[Dap]PAEEWGN-NH2; linker N-3 via X1)
Kd [1]: 0.584 µM

SMILES: C[C@H](NC(=O)[C@@H]1CCCN1C(=O)[C@@H]1CNC(=O)[C@@H](N)CC(=O)N[C@@H](Cc2c[nH]c3ccccc23)C(=O)N[C@@H](CC(N)=O)C(=O)N1)C(=O)N[C@@H](Cc1ccccc1)C(=O)N[C@@H](CCC(=O)O)C(=O)N[C@@H](Cc1c[nH]c2ccccc12)C(=O)NCC(=O)N[C@@H](CC(N)=O)C(N)=O (WN[Dap]PAFEWGN-NH2; linker N-3 via X1)
Kd [1]: 0.992 µM

SMILES: C[C@H](NC(=O)[C@@H]1CCCN1C(=O)[C@@H]1CNC(=O)[C@@H](N)CC(=O)N[C@@H](Cc2c[nH]c3ccccc23)C(=O)N[C@@H](CC(N)=O)C(=O)N1)C(=O)N[C@@H](Cc1ccc(O)cc1)C(=O)N[C@@H](CCC(=O)O)C(=O)N[C@@H](Cc1c[nH]c2ccccc12)C(=O)NCC(=O)N[C@@H](CC(N)=O)C(N)=O (WN[Dap]PAYEWGN-NH2; linker N-3 via X1)
Kd [1]: 0.585 µM

SMILES: C[C@H](NC(=O)[C@H](Cc1ccc(O)cc1)NC(=O)[C@@H]1CNC(=O)[C@@H](N)CC(=O)N[C@@H](Cc2c[nH]c3ccccc23)C(=O)N[C@@H](CC(N)=O)C(=O)N1)C(=O)N[C@@H](Cc1ccc(O)cc1)C(=O)N[C@@H](CCC(=O)O)C(=O)N[C@@H](Cc1c[nH]c2ccccc12)C(=O)NCC(=O)N[C@@H](CC(N)=O)C(N)=O (WN[Dap]YAYEWGN-NH2; linker N-3 via X1)
Kd [1]: 0.943 µM
